Here are results for one compound from publication PMC11868331, “A Phase 1b study of the OxPhos inhibitor ME-344 with bevacizumab in refractory metastatic colorectal cancer” (Investigational New Drugs, 2024).

Structures are written as SMILES.

The test system of data set [1] is patients with ovarian and small cell lung cancer. Set-up: method as in PMID 28283779. Particulars: ME-344 at 10 mg/kg in combination with topotecan; cited from earlier work.
The test system of data set [2] is solid tumors. Set-up: method as in PMID 25411085. Particulars: cited from earlier work.
Data set [3] relates to PyMT breast cancer and Lewis lung carcinoma models. Set-up: method as in PMID 27292634. The note with it: in combination with TKIs; cited from earlier work.
Data set [4] concerns panel of human cancer cells. Particulars: cells representative of most major organ systems; preclinical screening studies; cited from earlier work.
Data set [5] in a line: ME-344 plasma pharmacokinetics, non-compartmental analysis. The data set is classed as in vivo, human. The note with it: for Cmax, Mean (%CV): ME-344 10 mg/kg 60-minute infusion. The method, then:
Serial blood samples for ME-344 pharmacokinetic analyses were collected 5 min after the end of ME-344 infusion and at 1, 2, 3, 6 and 24 h after the completion of infusion on days 1 and 15 of cycle 1, and ME-344 plasma concentrations were determined using validated analytical methods. ME-344 pharmacokinetic parameters were estimated using actual sampling times by non-compartmental analysis.

For data set [6], the system named is early HER2-negative breast cancer. Set-up: method as in PMID 31597662. Particulars: mitochondrial on-target effect; cited from earlier work.

With `Cc1c(O)ccc2c1OC[C@@H](c1ccc(O)cc1)[C@H]2c1ccc(O)cc1` [ME-344], the tolerability entry in data set [1] is “well tolerated”. Further, the dose limiting toxicity result in data set [2] (at higher doses than 10 mg/kg) is “peripheral neuropathy”. Besides, in data set [2] (intravenously (IV) once weekly for 3 weeks in a 28-day cycle), the “recommended phase 2 dose” value was 10 mg/kg. Also, in data set [3], the tumor control entry is on record as “synergistic tumor control”. Further, in data set [4], the antiproliferative activity entry was “broad antiproliferative activity”. In addition, in data set [5] (Cycle 1 Day 1 (n = 17)), the “AUCinf, Mean (%CV)” value was 23.0 (34%) µg×h/mL; the “AUClast, Mean (%CV)” value is 22.6 (34%) µg×h/mL; the “Tmax, median (range)” value is 1.08 [1.03 – 1.33] hours; the “Cmax, Mean (%CV)” value is 12.60 (42%) µg/mL. Also, in data set [5] (Cycle 1 Day 15 (n = 15)), the “AUCinf, Mean (%CV)” value was 23.7 (38%) ^A µg×h/mL; the “AUClast, Mean (%CV)” value was 22.4 (35%) ^A µg×h/mL; the “Half-life (terminal phase t1/2), Mean (%CV)” value was 5.1 (38%) ^A h. For the same compound, in data set [5] (Cycle 1 Day 15 (n = 18)), the “Tmax, median (range)” value was 1.17 [1.03 – 2.23] hours and the “Cmax, Mean (%CV)” value is on record as 11.83 (47%) µg/mL. Also, the pre-dose plasma concentrations result in data set [5] (day 15) was “negligible”. For the same compound, the “succinate dehydrogenase and HIF1α staining” value in data set [6] is listed as “decrease”.
